The values below come from article PMC8449129, “Single tracer-based protocol for broad-spectrum kinase profiling in live cells with NanoBRET” (STAR Protocols, 2021).

Holding throughout (test): cell-based
Common to all, as to parameters: NanoBRET live-cell target engagement; % occupancy from displacement of tracer K10 on NanoLuc-kinase fusions, mean n=3
Common to all, as to conditions: HEK293, read-out: % inhibition
(In BRET a luciferase serves as donor, and the signal depends on an acceptor being close.)

One assay concerns the target AAK1 (Homo sapiens, UniProt Q2M2I8). The procedure, abridged:
(§1)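 Live-cell NanoBRET target engagement: cells expressing kinase–NanoLuc fusion with tracer treated with compound 2 h at 37 °C, 5% CO2. BRET read from donor (450 nm) and acceptor (610/630 nm) emission with 20 μM extracellular NanoLuc inhibitor; % occupancy calculated relative to tracer+DMSO and zero-BRET controls.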

The next assay deals with BMP2K (Homo sapiens, UniProt Q9NSY1). The procedure, abridged:
as §1

A further assay has as its target CDKL2 (Homo sapiens, UniProt Q92772). The procedure, abridged:
as §1

The target in another assay is ERN1 (Homo sapiens, UniProt O75460). A digest of the protocol:
as §1

Another assay deals with FLT3 (Homo sapiens, UniProt P36888). A digest of the protocol: as §1
The target of another assay is T1, ICK (Homo sapiens, UniProt Q9UPZ9).
T1 construct: gene CILK1
A digest of the protocol:
as §1

In the next assay the target is LCK (Homo sapiens, UniProt P06239). The procedure, abridged: as §1
Another assay has as its target LRRK2 (Homo sapiens, UniProt Q5S007). A digest of the protocol:
as §1

For another assay, the target named is MAP3K11 (Homo sapiens, UniProt Q16584). The procedure, abridged: as §1
The target of the next assay is PHKG1 (Homo sapiens, UniProt Q16816). A digest of the protocol: as §1
A further assay deals with PLK3 (Homo sapiens, UniProt Q9H4B4). The procedure, abridged:
as §1

A further assay deals with PRKAA2 (Homo sapiens, UniProt P54646). A digest of the protocol:
as §1

The next assay concerns the target PRKACA (Homo sapiens, UniProt P17612). A digest of the protocol:
as §1

The target of another assay is RIOK2 (Homo sapiens, UniProt Q9BVS4). A digest of the protocol: as §1
The target in another assay is RPS6KA4 (Homo sapiens, UniProt O75676). The procedure, abridged: as §1
For another assay, the target named is SIK1 (Homo sapiens, UniProt P57059). The procedure, abridged: as §1
The target of another assay is STK11 (Homo sapiens, UniProt Q15831). A digest of the protocol:
as §1

Another assay has as its target STK36 (Homo sapiens, UniProt Q9NRP7). A digest of the protocol: as §1

Chain of CDKL2 (Q92772 whole entry): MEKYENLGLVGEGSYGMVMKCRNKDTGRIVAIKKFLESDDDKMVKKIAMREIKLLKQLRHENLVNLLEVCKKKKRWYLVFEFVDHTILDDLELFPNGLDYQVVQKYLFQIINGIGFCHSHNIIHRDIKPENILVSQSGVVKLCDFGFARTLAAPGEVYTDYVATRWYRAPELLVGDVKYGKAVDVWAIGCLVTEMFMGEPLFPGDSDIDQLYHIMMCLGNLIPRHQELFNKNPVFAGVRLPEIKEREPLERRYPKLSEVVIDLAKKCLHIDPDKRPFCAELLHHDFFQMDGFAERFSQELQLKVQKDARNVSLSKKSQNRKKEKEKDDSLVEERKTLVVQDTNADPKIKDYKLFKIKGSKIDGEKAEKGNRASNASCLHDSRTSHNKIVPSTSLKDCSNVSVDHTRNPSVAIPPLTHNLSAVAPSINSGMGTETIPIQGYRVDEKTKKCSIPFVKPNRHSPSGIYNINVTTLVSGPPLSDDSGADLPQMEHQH
Chain of STK36 (Q9NRP7 whole entry): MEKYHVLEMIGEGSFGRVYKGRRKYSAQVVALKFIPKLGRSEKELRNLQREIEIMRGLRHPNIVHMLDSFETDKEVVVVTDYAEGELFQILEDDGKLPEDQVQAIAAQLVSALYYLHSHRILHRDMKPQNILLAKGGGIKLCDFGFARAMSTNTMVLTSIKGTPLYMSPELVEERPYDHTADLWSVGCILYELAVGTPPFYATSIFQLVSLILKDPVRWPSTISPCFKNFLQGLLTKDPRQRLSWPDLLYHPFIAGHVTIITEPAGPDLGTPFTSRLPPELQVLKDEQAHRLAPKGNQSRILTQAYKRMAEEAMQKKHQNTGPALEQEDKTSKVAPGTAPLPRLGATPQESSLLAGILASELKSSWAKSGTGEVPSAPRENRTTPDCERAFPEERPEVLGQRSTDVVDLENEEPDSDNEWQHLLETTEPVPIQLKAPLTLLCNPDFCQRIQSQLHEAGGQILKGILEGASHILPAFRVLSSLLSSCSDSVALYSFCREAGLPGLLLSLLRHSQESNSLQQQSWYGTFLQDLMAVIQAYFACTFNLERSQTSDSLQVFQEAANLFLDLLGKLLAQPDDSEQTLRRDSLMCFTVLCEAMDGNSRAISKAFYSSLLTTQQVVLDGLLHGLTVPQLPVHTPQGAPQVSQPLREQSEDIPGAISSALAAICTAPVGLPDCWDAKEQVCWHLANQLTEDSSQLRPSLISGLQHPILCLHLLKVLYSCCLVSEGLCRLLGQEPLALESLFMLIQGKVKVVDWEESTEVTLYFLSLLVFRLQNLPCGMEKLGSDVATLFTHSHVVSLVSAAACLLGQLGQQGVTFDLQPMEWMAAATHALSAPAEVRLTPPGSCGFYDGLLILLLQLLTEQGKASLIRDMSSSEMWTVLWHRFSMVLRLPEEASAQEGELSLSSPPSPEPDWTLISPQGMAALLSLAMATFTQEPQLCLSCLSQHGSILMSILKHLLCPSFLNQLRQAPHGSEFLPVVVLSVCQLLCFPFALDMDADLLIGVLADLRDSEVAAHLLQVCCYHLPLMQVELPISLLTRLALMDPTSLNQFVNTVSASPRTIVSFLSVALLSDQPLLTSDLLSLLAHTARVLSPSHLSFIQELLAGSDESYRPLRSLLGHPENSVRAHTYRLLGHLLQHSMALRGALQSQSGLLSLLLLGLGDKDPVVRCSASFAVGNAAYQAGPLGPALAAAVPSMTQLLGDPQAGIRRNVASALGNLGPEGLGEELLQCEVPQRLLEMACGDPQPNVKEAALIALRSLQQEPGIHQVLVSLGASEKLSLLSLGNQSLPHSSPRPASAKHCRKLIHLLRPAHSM
Chain of PLK3 (Q9H4B4 whole entry): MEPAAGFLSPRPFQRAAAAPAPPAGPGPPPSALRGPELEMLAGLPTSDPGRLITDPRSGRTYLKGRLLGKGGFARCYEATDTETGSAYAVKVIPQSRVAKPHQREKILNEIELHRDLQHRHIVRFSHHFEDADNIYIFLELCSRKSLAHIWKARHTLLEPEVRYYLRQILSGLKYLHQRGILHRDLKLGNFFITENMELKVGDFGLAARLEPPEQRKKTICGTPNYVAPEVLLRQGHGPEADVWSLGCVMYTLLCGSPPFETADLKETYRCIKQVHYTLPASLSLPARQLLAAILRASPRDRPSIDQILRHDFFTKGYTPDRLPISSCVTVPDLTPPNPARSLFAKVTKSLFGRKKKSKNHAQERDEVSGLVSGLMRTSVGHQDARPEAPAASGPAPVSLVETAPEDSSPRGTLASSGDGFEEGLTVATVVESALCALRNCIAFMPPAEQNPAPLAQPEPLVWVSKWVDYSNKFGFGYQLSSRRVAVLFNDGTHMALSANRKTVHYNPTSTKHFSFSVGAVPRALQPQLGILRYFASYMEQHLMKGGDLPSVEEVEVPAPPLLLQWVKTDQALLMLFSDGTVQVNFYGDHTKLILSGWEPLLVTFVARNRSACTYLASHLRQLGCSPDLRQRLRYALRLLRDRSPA
Chain of FLT3 (P36888 whole entry): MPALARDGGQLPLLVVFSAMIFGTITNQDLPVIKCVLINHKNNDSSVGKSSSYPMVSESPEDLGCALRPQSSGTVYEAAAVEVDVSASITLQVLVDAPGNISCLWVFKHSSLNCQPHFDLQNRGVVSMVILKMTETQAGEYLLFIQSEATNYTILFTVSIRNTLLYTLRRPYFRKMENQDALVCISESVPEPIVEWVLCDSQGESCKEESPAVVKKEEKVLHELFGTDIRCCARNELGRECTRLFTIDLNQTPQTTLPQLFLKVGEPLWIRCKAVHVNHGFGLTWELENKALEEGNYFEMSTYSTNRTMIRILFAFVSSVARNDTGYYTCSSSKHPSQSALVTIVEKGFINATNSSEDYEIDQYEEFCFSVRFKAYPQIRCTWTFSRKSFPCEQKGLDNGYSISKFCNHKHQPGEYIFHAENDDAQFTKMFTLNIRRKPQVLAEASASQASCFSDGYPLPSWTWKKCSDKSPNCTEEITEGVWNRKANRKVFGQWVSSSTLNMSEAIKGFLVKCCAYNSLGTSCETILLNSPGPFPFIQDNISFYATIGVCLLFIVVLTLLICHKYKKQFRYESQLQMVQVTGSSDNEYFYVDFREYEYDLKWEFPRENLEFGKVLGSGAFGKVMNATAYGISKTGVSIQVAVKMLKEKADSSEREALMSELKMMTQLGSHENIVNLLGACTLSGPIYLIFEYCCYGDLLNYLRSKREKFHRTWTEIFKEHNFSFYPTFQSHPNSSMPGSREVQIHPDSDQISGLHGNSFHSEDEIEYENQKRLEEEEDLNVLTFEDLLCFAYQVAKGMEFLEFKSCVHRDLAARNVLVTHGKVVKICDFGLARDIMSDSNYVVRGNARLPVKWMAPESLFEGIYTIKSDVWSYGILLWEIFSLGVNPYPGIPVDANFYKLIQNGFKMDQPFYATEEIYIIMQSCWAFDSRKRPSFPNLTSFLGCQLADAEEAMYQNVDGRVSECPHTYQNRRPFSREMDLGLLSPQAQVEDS
T1 sequence (Q9UPZ9 whole entry): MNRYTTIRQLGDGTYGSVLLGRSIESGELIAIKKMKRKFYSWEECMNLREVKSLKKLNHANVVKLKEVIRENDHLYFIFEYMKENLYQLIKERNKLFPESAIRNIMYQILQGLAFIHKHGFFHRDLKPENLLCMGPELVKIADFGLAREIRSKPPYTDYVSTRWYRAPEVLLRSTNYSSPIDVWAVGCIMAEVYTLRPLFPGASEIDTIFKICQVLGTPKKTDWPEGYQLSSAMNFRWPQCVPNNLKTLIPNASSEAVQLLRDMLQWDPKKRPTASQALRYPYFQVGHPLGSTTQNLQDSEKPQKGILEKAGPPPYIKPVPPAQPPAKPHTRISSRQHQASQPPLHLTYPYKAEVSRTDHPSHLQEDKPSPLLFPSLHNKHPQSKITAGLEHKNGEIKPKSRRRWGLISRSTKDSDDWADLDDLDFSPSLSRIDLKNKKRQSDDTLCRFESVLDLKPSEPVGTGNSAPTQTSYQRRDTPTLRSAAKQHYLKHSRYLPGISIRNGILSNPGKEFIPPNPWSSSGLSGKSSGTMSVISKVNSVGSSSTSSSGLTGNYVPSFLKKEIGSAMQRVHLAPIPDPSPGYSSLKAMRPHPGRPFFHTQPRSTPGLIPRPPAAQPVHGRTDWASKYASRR
Chain of ERN1 (O75460 whole entry): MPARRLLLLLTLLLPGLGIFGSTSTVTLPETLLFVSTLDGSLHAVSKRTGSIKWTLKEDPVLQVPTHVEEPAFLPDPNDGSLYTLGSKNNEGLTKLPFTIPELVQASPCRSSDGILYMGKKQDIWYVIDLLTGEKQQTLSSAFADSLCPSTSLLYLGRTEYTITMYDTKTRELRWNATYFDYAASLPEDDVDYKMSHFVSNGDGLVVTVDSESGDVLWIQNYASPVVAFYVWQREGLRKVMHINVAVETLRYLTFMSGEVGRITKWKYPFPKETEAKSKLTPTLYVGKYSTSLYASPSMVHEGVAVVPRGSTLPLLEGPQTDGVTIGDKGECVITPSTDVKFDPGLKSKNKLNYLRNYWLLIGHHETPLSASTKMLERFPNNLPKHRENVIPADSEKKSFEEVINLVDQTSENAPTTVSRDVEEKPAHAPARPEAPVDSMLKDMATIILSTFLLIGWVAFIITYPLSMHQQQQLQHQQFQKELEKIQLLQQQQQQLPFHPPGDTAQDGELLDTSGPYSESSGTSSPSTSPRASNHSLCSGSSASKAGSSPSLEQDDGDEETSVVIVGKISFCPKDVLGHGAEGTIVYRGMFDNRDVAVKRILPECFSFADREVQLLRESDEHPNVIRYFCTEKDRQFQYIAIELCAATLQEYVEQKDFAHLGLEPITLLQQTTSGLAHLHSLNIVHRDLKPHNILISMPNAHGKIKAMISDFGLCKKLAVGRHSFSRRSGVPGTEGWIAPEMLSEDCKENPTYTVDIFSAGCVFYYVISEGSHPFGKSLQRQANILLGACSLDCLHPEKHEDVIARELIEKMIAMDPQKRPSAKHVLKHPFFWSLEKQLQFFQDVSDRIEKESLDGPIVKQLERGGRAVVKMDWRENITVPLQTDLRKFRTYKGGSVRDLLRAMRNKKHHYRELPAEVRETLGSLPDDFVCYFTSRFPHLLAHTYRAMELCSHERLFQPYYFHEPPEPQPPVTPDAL

A word on the inhibition: it is the drop in the measured response relative to a control, in per cent. With `C[C@@H](Oc1cc(-c2cnn(C3CCNCC3)c2)cnc1N)c1c(Cl)ccc(F)c1Cl` [crizotinib], the inhibition at 1 µM on AAK1 is -14%; at BMP2K it was 11%; at CDKL2, 21%; on ERN1 it was -3%; on FLT3, -4%; at ICK it was 3%. Moreover, the inhibition at 1 µM on LCK is 36%; at LRRK2, -9%; at MAP3K11 it was 0%; at PHKG1 it was -3%; on PLK3, 4%; at PRKAA2 it was -6%. The inhibition at 1 µM at PRKACA was -1%; on RIOK2, 9%; at RPS6KA4 it was -11%; at SIK1, -4%; at STK11, -1%; on STK36, -6%.
